Test results reported in US10662204B2 (PFIZER INC., priority 2018, dated 2020).

Assays:
KRAS G12C [1] = biological target: T1, KRAS G12C (Homo sapiens, UniProt P01116, G12C); experiment: Cell Activity Assay: accumulation of GDP-bound KRAS G12C in MIAPaCa-2 cells (Raf-1 RBD capture, MSD readout); assay type: cell-based; design: endogenous in cells; host or cells: MIAPaCa-2; details: 6 hours, assay limit is 30.00
How it was run: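 IC50 came from a 4-parameter fit of Ras signal normalized between DMSO and full-inhibition controls. Readout: lysate GTP-Ras bound to immobilized Raf-1 RBD, quantified with pan-Ras antibody and MSD electrochemiluminescence. Lysates derived from MIAPaCa-2 cells treated 6 h with serially diluted compound, 0.3% DMSO.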

[2] = biological target: T2, GDP-loaded KRAS (1-169) G12C, C51S, C80L, C118S (Homo sapiens, UniProt P01116, C118S/C51S/C80L/G12C); experiment: Mass Spectrometry Reactivity Assay (MSRA): covalent adduct of compound and KRAS G12C, Percent Modification; assay type: binding; details: 10 μM compound, 0.50 hr
T2 construct: GDP-loaded KRAS (1-169) G12C, C51S, C80L, C118S
How it was run: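 Covalent labelling is measured by intact mass: deconvoluted modified and unmodified peak intensities yield percent modification. Compound, usually 5 μM or 10 μM final, reacts at room temperature with 5 μM GDP-bound KRAS G12C (1-169, C51S/C80L/C118S) in Hepes pH 7.5/NaCl/glycerol, sampled at 1, 15, 30, 60 min.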

KRAS G12C [3] = biological target: T1, KRAS G12C; experiment: Cell Activity Assay: IC50 in H358 cells; assay type: cell-based; design: endogenous in cells
Procedure: Compounds presented in the present invention lead to the accumulation of the GDP bound Ras upon treatment of human cancer cell line.
The accumulation of the GDP-bound KRAS G12C in cellular environment was measured based on the principle that KRAS G12C only binds to its downstream kinase; Raf-1 (MAP Kinase Kinase Kinase), when in its active-GTP bound state. In this state, Ras binded to a domain of Raf-1 kinase referred to as the Ras Binding Domain (RBD).
Raf-1 RBD (LJIC-1988A1) was diluted to 100 ng/well in PBS and 5 μl/well was spot coated onto MSD high bind SECTOR plates (L15XB). Plates were incubated at room temperature for 1 hour on an orbital shaker. Plates were washed with PBS/0.05% Tween-20 and 50 μl/well of thawed lysate samples were added, followed by 50 μl of 1% MSD Blocker A in PBS/0.05 Tween-20 (R93BA). Plates were incubated for 1 hour on an orbital shaker and washed with PBS/0.05% Tween-20. 25 μl/well of Anti-pan-Ras Antibody (Cell Biolabs 244003) diluted 1:3000 was added in 1% MSD Blocker A solution and plates were incubated for 1 hour on an orbital shaker and washed with PBS/0.05% Tween-20. SULFO-TAG goat anti-mouse secondary antibody (MSD R32AC) was diluted 1:500 in MSD Blocker A solution and added at 25 μL/well. Plates were incubated for 1 hour on an orbital shaker and washed with PBS/0.05% Tween-20. 150 μl/well of Read Buffer T (MSD R92TC) diluted 1:3 in H2O was added and plates were read on a Meso Scale Discovery Sector Imager S600.
KRAS signal was normalized to maximum inhibition and DMSO control values, and IC50 values were generated using a 4 parameter fit of the dose response curve. The decrease in IC50 reflects that the exemplary compound lead to a higher level of accumulation of GDP-bound KRAS G12C than another exemplary compounds at specific timepoint of treatment of cancer cell line.

With C=CC(=O)N1CCN(c2nc(N3CC(N(C)C)C3)nc3c(Oc4c(C)ccc5[nH]ncc45)nccc23)CC1 [Example 02B, 1-(4-{2-[3-(dimethylamino)azetidin-1-yl]-8-[(5-methyl-1H-indazol-4-yl)oxy]pyrido[3,4-d]pyrimidin-4-yl}piperazin-1-yl)prop-2-en-1-one] the IC50 (KRAS G12C [1]) was 7.84 µM, the “MSRA (% modification) 10 μM 0.50 hr” value [2] was 30% and the IC50 (KRAS G12C [3]) was 8.2 µM.
